From article PMC8838850, “Synthesis, Antimicrobial, Anti-Virulence and Anticancer Evaluation of New 5(4H)-Oxazolone-Based Sulfonamides” (Molecules, 2022)

Structure (SMILES)	melting point [°C]
Cc1ccc(S(=O)(=O)Nc2ccccc2C2=N/C(=C/c3ccc([N+](=O)[O-])cc3)C(=O)O2)cc1 [Compound 9f, (E)-4-Methyl-N-(2-(4-(4-nitrobenzylidene)-5-oxo-4,5-dihydrooxazol-2-yl)phenyl)benzenesulfonamide]	250 to 252
Cc1ccc(S(=O)(=O)Nc2ccccc2C2=N/C(=C/c3ccccc3)C(=O)O2)cc1 [Compound 9a, (E)-N-(2-(4-Benzylidene-5-oxo-4,5-dihydrooxazol-2-yl)phenyl)-4-methylbenzenesulfonamide]	214 to 216
